# In patent US5159081A, “Intermediates of peripherally selective N-carbonyl-3,4,4-trisubstituted piperidine opioid antagonists” (Eli Lilly and Company, priority 1991, dated 1992):
# Where two headings read alike, the source gives them in different places.
# Columns and labels:
# opioid receptor = biological target: T1, opioid receptor (Mus musculus, UniProt P42866); experiment: in vivo; set-up: species or system CF-1 male mice; conditions: sc; mouse writhing test; […]; s.c. 20 min before acetic acid; read-out: AD50 (the source's name)
# T1 construct: Five CF-1 male mice (Charles River, Portage, MI); from tissue; host or cells: living CF-1 male mice (whole animal, endogenous receptor)
# T1 sequence (P42866 whole entry): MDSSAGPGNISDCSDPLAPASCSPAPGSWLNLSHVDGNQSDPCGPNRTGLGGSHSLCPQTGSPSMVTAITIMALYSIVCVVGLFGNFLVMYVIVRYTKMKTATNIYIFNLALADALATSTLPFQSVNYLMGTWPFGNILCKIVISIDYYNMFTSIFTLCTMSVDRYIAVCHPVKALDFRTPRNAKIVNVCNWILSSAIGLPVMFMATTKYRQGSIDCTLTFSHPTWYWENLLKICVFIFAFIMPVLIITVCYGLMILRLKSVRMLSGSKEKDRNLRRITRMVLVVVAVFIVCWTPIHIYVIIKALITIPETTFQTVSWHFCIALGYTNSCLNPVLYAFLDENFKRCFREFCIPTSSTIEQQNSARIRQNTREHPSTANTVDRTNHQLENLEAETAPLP
# mu receptor = biological target: T2, mu receptor (Rattus norvegicus, UniProt P33535); experiment: Naloxone [3H] opioid receptor binding assay (mu receptor); set-up: species or system rat (male Sprague Dawley); conditions: 20 min; for Ki: rat whole brain minus cerebellum, pH 7.4, 37° C., read-out: Ki
# T2 construct: The brain tissue, rat whole brain minus cerebellum for mu was homogenized; from tissue; host or cells: brain minus cerebellum of male Sprague Dawley rats, homogenate fraction
# T2 sequence (P33535 whole entry): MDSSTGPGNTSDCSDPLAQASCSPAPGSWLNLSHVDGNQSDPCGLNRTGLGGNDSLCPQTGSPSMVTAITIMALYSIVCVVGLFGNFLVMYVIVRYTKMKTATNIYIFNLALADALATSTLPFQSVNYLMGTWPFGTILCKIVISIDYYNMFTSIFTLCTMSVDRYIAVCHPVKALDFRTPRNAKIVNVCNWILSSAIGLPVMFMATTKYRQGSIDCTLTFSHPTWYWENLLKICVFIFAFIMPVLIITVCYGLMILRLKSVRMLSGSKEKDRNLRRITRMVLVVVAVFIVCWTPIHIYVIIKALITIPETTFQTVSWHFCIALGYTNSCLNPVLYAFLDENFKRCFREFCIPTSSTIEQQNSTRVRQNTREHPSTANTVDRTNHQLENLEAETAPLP
# [1] = biological target: peripheral opioid receptors (Mus musculus, UniProt P42866); experiment: mouse diarrhea test: precipitated diarrhea in morphine-maintained mice (peripheral opioid activity); format: in vivo; conditions: mouse diarrhea test, morphine-maintained mice, subcutaneous or oral, 30 min observation
# Chain of peripheral opioid receptors (Mus musculus, UniProt P42866) (P42866 whole entry): as the sequence (P42866 whole entry) above
# [2] = tested on: peripheral opioid receptors; experiment: as above; format: in vivo; conditions: AD50 mouse writhing / ED50 mouse diarrhea; higher = greater relative peripheral antagonism
# [3] = pH 7.4, read-out: % displacement at 10 nM
# [4] = pH 7.4, read-out: % displacement at 100 nM
# [5] = pH 7.4, 10 nM test compound, [3H]naloxone 0.5 nM, mu receptor, read-out: % displacement at 10 nM
# [6] = pH 7.4, 100 nM test compound, [3H]naloxone 0.5 nM, mu receptor, read-out: % displacement at 100 nM
Structure (SMILES),ED50 (opioid receptor) [mg/kg],inhibition at 0.01 µM (mu receptor; [3]) [%],inhibition at 0.1 µM (mu receptor; [4]) [%],Ki (mu receptor; [3H]naloxone 0.5 nM) [nM],ED50 [1] [mg/kg],Ratio (ratio of AD50 to ED50) [2],inhibition at 0.01 µM (mu receptor; [5]) [%],inhibition at 0.1 µM (mu receptor; [6]) [%],"ED50 ([1]; 0.5 h, read-out: ED50) [mg/kg]"
C[C@@H]1CN(C[C@H](CC2CCCCC2)NC(=O)CCCC(=O)OCC(N)=O)CC[C@]1(C)c1cccc(O)c1 [Example 60],> 10,76,95,5.96,0.035,> 285,–,–,–
C[C@H]1CN(C[C@H](CC2CCCCC2)NC(=O)CCCC(=O)OCC(N)=O)CC[C@@]1(C)c1cccc(O)c1 [Example 61],22,88,97,2.86,0.13,169,–,–,–
CNC(=O)COC(=O)CCCC(=O)N[C@@H](CC1CCCCC1)CN1CC[C@](C)(c2cccc(O)c2)[C@H](C)C1 [Example 62],> 40,70,96,–,0.03,> 1333,–,–,–
CNC(=O)COC(=O)CCCC(=O)N[C@@H](CC1CCCCC1)CN1CC[C@@](C)(c2cccc(O)c2)[C@@H](C)C1 [Example 63],12,87,99,2.13,0.003,4000,–,–,–
CCNC(=O)COC(=O)CCCC(=O)N[C@@H](CC1CCCCC1)CN1CC[C@](C)(c2cccc(O)c2)[C@H](C)C1 [Example 65],> 40,67,93,–,0.02,> 2000,–,–,–
CCNC(=O)COC(=O)CCCC(=O)N[C@@H](CC1CCCCC1)CN1CC[C@@](C)(c2cccc(O)c2)[C@@H](C)C1 [Example 66],12.2,81,94,1.84,0.005,2440,–,–,–
COC1CCC(OC(=O)CCCC(=O)N[C@@H](CC2CCCCC2)CN2CC[C@@](C)(c3cccc(O)c3)[C@@H](C)C2)CC1 (some centres unmarked) [Example 68],18.8,–,–,–,–,65,68,95,0.29
COC1CCC(OC(=O)CCCC(=O)N[C@@H](CC2CCCCC2)CN2CC[C@](C)(c3cccc(O)c3)[C@H](C)C2)CC1 (some centres unmarked) [Example 69],> 40,–,–,–,–,> 1333,37,83,0.03
Cc1oc(=O)oc1COC(=O)CCCC(=O)N[C@@H](CC1CCCCC1)CN1CC[C@@](C)(c2cccc(O)c2)[C@@H](C)C1 [Example 70],18.2,89,99,1.78,0.017,1070,–,–,–
